Data taken from publication PMC8481536, “Wells–Dawson phosphotungstates as mushroom tyrosinase inhibitors: a speciation study” (Scientific Reports, 2021).

Assay: Charge density (q/m, charges per addenda metal ion) of POT anions
Type: physicochemical
Settings: for Charge density q/m of the anion: Wells–Dawson POTs and their products; for Charge density q/m of POT product Hx[α2-P2W17O61](10−x)−, x = 3 / Charge density q/m of POT product Hx[α2-P2W17O61](10−x)−, x = 4: product formed from the educt at pH 6.8
Source text: The charge density of POMs, expressed in number of charges (q) per addenda metal ions (m), is a criterion to characterize the chaotropic behavior of POMs (Table S6)[49]–[53]. […] The activity of [P2W18]^6−, [P2W17]^10− and [P2W15]^12− solutions correlates with the amount of the dominant monolacunary anion [α2-P^V2W^VI17O61]^10− in Na-citrate buffer at pH 6.8 (Fig. 3, Scheme S1). For the unprotonated form of the active monolacunary Wells–Dawson anion [α2-P^V2W^VI17O61]^10− the q/m ratio is 0.59 (Table 2), however, the protonation of this anion in neutral solutions has previously been shown by electrochemical analysis in combination with theoretical calculations[47],[55]. For POMs the proton affinity difference between the terminal and bridging oxygen is around 11 kcal mol^−1[56], proving that the four oxygen atoms surrounding the lacuna are much more basic than the bridging and terminal O atoms (Fig. 1B), and thus prone to protonation. Electrospray-ionization mass spectrometry (ESI–MS) has already been successfully used for the protonation states assignment of Wells–Dawson POTs containing different heteroatoms. Consequently, ESI–MS has been applied to investigate the protonation state of monolacunary [α2-P^V2W^VI17O61]^10−. When recording ESI–MS for POMs in Na-citrate buffer, the relative intensity of citrate anion signals is almost 100%, suppressing POM signals. […] The spectra recorded in both solvents show signals for NaH4[α2-P^V2W^VI17O61]^5- at 838.0 and NaKH3[α2-P^V2W^VI17O61]^5- at 845.6 m/z, while species with lower protonation states have not been detected (Fig. S19). Therefore, the monolacunary anion [α2-P^V2W^VI17O61]^10− is present as the three-fold protonated anion H3[α2-P^V2W^VI17O61]^7- with a charge density of 0.41 and the four-fold protonated anion H4[α2-P^V2W^VI17O61]^6− with a charge density of 0.35. The predominant species in [P2W12]^12− is the wheel-shaped [P^V8W^VI48O184]^40− (23%), which can be protonated to H16[P^V8W^VI48O184]^24−[58] q/m = 0.5. Due to the compositional complexity of the hexalacunary anion it is impossible to accurately correlate its activity with the POTs’ charge density.
10 Summary of POT charge densities of Keggin and Wells-Dawson POTs
In order to facilitate comparison of the inhibitory capacities of the Keggin and Wells-Dawson POT samples tested in our laboratory against AbPPO4 and to obtain a structure-activity correlation, the charge densities (anionic charge per W addenda atom) of the species present […]
the charge densities, the following stability windows for POTs can be identified:
1) intact closed clusters: q/m ≈ 0.33 – 0.50
Structures with higher charge densities were not analyzed. Structures with a q/m value lower than 0.33 are prone to hydrolysis or reduction under suitable conditions, both leading to an increase in charge density.
2) lacunary clusters: q/m = 0.35 – 0.45
Structures with lower charge densities were not analyzed. Structures with a q/m value higher than 0.45 achieve stabilization by taking up protons for charge compensation. However, too […]
these pathways result in a decrease in charge density.
Overall, the preferred stable charge densities at neutral pH of both the intact and lacunary POTs […]
for intact clusters. This seems to be an intrinsic POT property as a combined result of 1) the reactivity of lacunary oxygen sites and 2) the hydrolytic susceptibility to hydroxide anions in aqueous solution in competition with electrostatic repulsion with the anionic POT charge. […]
metal centers in their oxygen-bound environment.
The scenario is different when looking at the POT interaction with the enzyme AbPPO4. Among […]
values show a clear correlation to the q/m values, with the lowest charge density corresponding to the highest protein affinity. But going to the larger Wells-Dawson archetype, comparing the active lacunary species H [PVWVI O ]4- (Keggin) and H [α -PV WVI O ](10-x)- (x = 3 or 4) (Wells- […]
charge densities. As stated in the main text, the basic inhibition effect shown by the Wells- […]

| Substance | Charge density q/m of the anion (listed as H2[PV2WVI12O48]12-) | Charge density q/m of the anion (listed as H2[P^V2W^VI12O48]^12−) | Charge density q/m of the anion | Charge density q/m of POT product Hx[α2-P2W17O61](10−x)−, x = 3 | Charge density q/m of POT product Hx[α2-P2W17O61](10−x)−, x = 4 | Charge density q/m of the anion (listed as [PV2WVI15O56]12-) | Charge density q/m of the anion (listed as [P^V2W^VI15O56]^12−) |
| --- | --- | --- | --- | --- | --- | --- | --- |
| (NH4)12[H2P^V2W^VI12O48]·24H2O [[P2W12]^12−] | 1.00 | 1 | – | – | – | – | – |
| K6[α/β-P^V2W^VI18O62]·14H2O [[P2W18]^6−] | – | – | 0.33 | 0.41 | 0.35 | – | – |
| K10[α2-P^V2W^VI17O61]·20H2O [[P2W17]^10−] | – | – | 0.59 | 0.41 | 0.35 | – | – |
| K12[P^V2W^VI15O56]·24H2O [[P2W15]^12−] | – | – | – | 0.41 | 0.35 | 0.80 | 0.8 |
